Measured values reported in patent US10399988B2, “4-aminopyrazolo[3,4-d]pyrimidinylazabicyclo derivatives and pharmaceutical composition comprising the same” (Daewoong Pharmaceutical Co., Ltd., priority 2016, dated 2019).

What was measured:
ITK = target: T1, ITK (Homo sapiens, UniProt Q08881); experiment: Inhibitory activity against ITK (ADP-Glo + ITK Kinase enzyme system kit); selectivity BTK vs. ITK; type: biochemical; details: for IC50: ITK enzyme 0.4 ng/uL, ATP 25 uM, luminescence, duplicate; for Selectivity (based on IC50): selectivity for the inhibitory activity of BTK vs. ITK, Equation 1
T1 construct: purchased Promega Corporation
T1 sequence (Q08881 1-620): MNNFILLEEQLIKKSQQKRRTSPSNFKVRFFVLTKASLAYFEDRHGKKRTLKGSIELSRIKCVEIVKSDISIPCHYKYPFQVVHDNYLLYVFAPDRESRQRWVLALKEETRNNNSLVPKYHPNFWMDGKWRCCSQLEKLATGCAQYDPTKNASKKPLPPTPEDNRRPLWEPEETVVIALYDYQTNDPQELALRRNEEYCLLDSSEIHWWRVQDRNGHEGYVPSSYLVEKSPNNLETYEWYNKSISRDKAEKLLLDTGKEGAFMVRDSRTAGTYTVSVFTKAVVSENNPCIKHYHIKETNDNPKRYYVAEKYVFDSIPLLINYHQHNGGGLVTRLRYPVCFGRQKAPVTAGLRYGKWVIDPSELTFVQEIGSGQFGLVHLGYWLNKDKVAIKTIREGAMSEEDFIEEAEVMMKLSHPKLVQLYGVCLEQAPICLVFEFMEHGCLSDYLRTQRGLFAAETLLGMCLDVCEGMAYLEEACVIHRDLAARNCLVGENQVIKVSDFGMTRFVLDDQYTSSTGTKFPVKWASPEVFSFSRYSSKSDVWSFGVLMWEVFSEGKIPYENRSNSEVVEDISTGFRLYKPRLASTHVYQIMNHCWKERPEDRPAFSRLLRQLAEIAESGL

BTK = BTK (Homo sapiens, UniProt Q06187); experiment: Inhibitory activity against BTK (ADP-Glo + BTK Kinase enzyme system kit)
Sequence of BTK (Q06187 whole entry): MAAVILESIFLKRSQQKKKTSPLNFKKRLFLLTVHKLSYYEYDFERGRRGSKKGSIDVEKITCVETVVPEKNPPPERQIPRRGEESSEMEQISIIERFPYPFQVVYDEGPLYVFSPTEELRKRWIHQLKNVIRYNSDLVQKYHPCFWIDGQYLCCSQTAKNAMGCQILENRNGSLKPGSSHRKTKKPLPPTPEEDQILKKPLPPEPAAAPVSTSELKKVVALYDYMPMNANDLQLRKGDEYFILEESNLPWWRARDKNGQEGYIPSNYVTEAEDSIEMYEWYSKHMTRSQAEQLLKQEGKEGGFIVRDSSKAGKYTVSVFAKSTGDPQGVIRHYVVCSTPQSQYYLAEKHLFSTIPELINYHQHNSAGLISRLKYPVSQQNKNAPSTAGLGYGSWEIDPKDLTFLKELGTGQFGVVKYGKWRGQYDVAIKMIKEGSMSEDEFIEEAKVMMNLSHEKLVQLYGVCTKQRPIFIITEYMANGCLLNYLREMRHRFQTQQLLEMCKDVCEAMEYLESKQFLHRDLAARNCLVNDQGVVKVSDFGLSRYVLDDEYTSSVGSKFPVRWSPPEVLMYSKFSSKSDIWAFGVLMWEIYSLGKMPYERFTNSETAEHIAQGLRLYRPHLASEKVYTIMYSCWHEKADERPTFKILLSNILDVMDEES

Question: `C=CC(=O)N1CC2CC1C(n1nc(-c3ccc(C(=O)Nc4cnccn4)cc3)c3c(N)ncnc31)C2` (stereo not drawn) [Ex. 53, 4-(1-(2-acryloyl-2-azabicyclo[2.2.1]heptan-6-yl)-4-amino-1H-pyrazolo[3,4-d]pyrimidin-3-yl)-N-(pyrazin-2-yl)benzamide] was tested. Which IC50 (ITK) did it give?
Answer: > 1000 nM

Question: What about the “Selectivity (based on IC50)” value (ITK) of the same compound?
Answer: >370.3

Question: And the IC50 (BTK)?
Answer: 2.7 nM

Question: What does the source list for `C=CC(=O)N1CC2CC1C(n1nc(-c3ccc(S(=O)(=O)Nc4ccccc4)cc3)c3c(N)ncnc31)C2` (stereo not drawn) [Ex. 54, 4-(1-(2-acryloyl-2-azabicyclo[2.2.1]heptan-6-yl)-4-amino-1H-pyrazolo[3,4-d]pyrimidin-3-yl)-N-phenylbenzenesulfonamide]?
Answer: IC50 (ITK): > 1000 nM; Selectivity (based on IC50) (ITK): >454.5; IC50 (BTK): 2.2 nM

Question: What does the source list for `C=CC(=O)N1CC2CCC1C(n1nc(-c3ccc(Oc4ccccc4)cc3)c3c(N)ncnc31)C2` (stereo not drawn) [Ex. 59, 1-(6-(4-amino-3-(4-phenoxyphenyl)-1H-pyrazolo[3,4-d]pyrimidin-1-yl)-2-azabicyclo[2.2.2]octan-2-yl)prop-2-en-1-one]?
Answer: IC50 (ITK): 110 nM; Selectivity (based on IC50) (ITK): 39.1; IC50 (BTK): 2.8 nM

Question: `Nc1ncnc2c1c(-c1ccc(Oc3ccccc3)cc1)nn2C1CC2CC1N(C(=O)/C=C/CN1CCCCC1)C2` (stereo not drawn) [Ex. 63, (E)-1-(6-(4-amino-3-(4-phenoxyphenyl)-1H-pyrazolo[3,4-d]pyrimidin-1-yl)-2-azabicyclo[2.2.1]heptan-2-yl)-4-(piperidin-1-yl)but-2-en-1-one] was tested. Which IC50 (ITK) did it give?
Answer: > 500 nM

Question: And the “Selectivity (based on IC50)” value (ITK)?
Answer: >333.3

Question: And the IC50 (BTK)?
Answer: 1.5 nM

Question: What does the source list for `C=CC(=O)N1CC2CC1C(n1nc(-c3ccc(C(=O)Nc4ccccn4)cc3F)c3c(N)ncnc31)C2` (stereo not drawn) [Ex. 64, 4-(1-(2-acryloyl-2-azabicyclo[2.2.1]heptan-6-yl)-4-amino-1H-pyrazolo[3,4-d]pyrimidin-3-yl)-3-fluoro-N-(pyridin-2-yl)benzamide]?
Answer: IC50 (ITK): 71.5 nM; Selectivity (based on IC50) (ITK): 44.7; IC50 (BTK): 1.6 nM

Question: `C=CC(=O)N1CC2CC1C(n1nc(-c3ccc(C(=O)Nc4cc(F)ccn4)cc3)c3c(N)ncnc31)C2` (stereo not drawn) [Ex. 67, 4-(1-(2-acryloyl-2-azabicyclo[2.2.1]heptan-6-yl)-4-amino-1H-pyrazolo[3,4-d]pyrimidin-3-yl)-N-(4-fluoropyridin-2-yl)benzamide] was tested. Which IC50 (ITK) did it give?
Answer: 54.1 nM

Question: And the “Selectivity (based on IC50)” value (ITK)?
Answer: 108.2

Question: What about the IC50 (BTK) of the same compound?
Answer: 0.5 nM

Question: `C=CC(=O)N1CC2CC1C(n1nc(-c3ccc(C(=O)Nc4cc(C)ccn4)cc3)c3c(N)ncnc31)C2` (stereo not drawn) [Ex. 68, 4-(1-(2-acryloyl-2-azabicyclo[2.2.1]heptan-6-yl)-4-amino-1H-pyrazolo[3,4-d]pyrimidin-3-yl)-N-(4-methylpyridin-2-yl)benzamide] was tested. Which IC50 (ITK) did it give?
Answer: 176 nM

Question: What about the “Selectivity (based on IC50)” value (ITK) of the same compound?
Answer: 73.1

Question: What about the IC50 (BTK) of the same compound?
Answer: 2.4 nM

Question: How did the IC50 (ITK) turn out when `C=CC(=O)N1C[C@@H]2C[C@@H]1[C@@H](n1nc(-c3ccc(C(=O)Nc4ccccn4)cc3)c3c(N)ncnc31)C2` [Ex. 69, 4-(1-((1R,4R,6S)-2-acryloyl-2-azabicyclo[2.2.1]heptan-6-yl)-4-amino-1H-pyrazolo[3,4-d]pyrimidin-3-yl)-N-(pyridin-2-yl)benzamide] was run?
Answer: 235 nM

Question: What about the “Selectivity (based on IC50)” value (ITK) of the same compound?
Answer: 181.2

Question: What about the IC50 (BTK) of the same compound?
Answer: 1.3 nM

Question: With `C=CC(=O)N1CC2CC1C(n1nc(-c3ccc(C(=O)Nc4cc(C#N)ccn4)cc3)c3c(N)ncnc31)C2` (stereo not drawn) [Ex. 71, 4-(1-(2-acryloyl-2-azabicyclo[2.2.1]heptan-6-yl)-4-amino-1H-pyrazolo[3,4-d]pyrimidin-3-yl)-N-(4-cyanopyridin-2-yl)benzamide] as the compound, how does the IC50 (ITK) read?
Answer: 133 nM

Question: What about the “Selectivity (based on IC50)” value (ITK) of the same compound?
Answer: 147.7

Question: And the IC50 (BTK)?
Answer: 0.9 nM

Question: With `C=CC(=O)N1C[C@@H]2C[C@H]1[C@@H](n1nc(-c3ccc(C(=O)Nc4cc(F)ccn4)cc3)c3c(N)ncnc31)C2` [Ex. 72, 4-(1-((1S,4R,6S)-2-acryloyl-2-azabicyclo[2.2.1]heptan-6-yl)-4-amino-1H-pyrazolo[3,4-d]pyrimidin-3-yl)-N-(4-fluoropyridin-2-yl)benzamide] as the compound, how does the IC50 (ITK) read?
Answer: 47.9 nM

Question: What about the “Selectivity (based on IC50)” value (ITK) of the same compound?
Answer: 31.9

Question: And the IC50 (BTK)?
Answer: 1.5 nM

Question: What does the source list for `N#CC(=CC1CC1)C(=O)N1C[C@H]2CC(n3nc(-c4ccc(C(=O)Nc5ccccn5)cc4)c4c(N)ncnc43)[C@H]1C2` (stereo partly drawn) [Ex. 75, 4-(4-amino-1-((1R,4R)-2-(2-cyano-3-cyclopropylacryloyl)-2-azabicyclo[2.2.1]heptan-6-yl)-1H-pyrazolo[3,4-d]pyrimidin-3-yl)-N-(pyridin-2-yl)benzamide]?
Answer: IC50 (ITK): 305 nM; Selectivity (based on IC50) (ITK): 76.2; IC50 (BTK): 4 nM

Question: Which IC50 (ITK) does the source give for `C=CC(=O)N1C[C@@H]2C[C@H]1[C@@H](n1nc(-c3ccc(C(=O)Nc4ccccn4)cc3Cl)c3c(N)ncnc31)C2` [Ex. 80, 4-(1-((1S,4R,6S)-2-acryloyl-2-azabicyclo[2.2.1]heptan-6-yl)-4-amino-1H-pyrazolo[3,4-d]pyrimidin-3-yl)-3-chloro-N-(pyridin-2-yl)benzamide] here?
Answer: 32.1 nM

Question: And the “Selectivity (based on IC50)” value (ITK)?
Answer: 26.8

Question: And the IC50 (BTK)?
Answer: 1.2 nM

Question: Which IC50 (ITK) does the source give for `C=CC(=O)N1C[C@@H]2C[C@H]1[C@@H](n1nc(-c3ccc(C(=O)Nc4ccccn4)cc3OC)c3c(N)ncnc31)C2` [Ex. 81, 4-(1-((1S,4R,6S)-2-acryloyl-2-azabicyclo[2.2.1]heptan-6-yl)-4-amino-1H-pyrazolo[3,4-d]pyrimidin-3-yl)-3-methoxy-N-(pyridin-2-yl)benzamide] here?
Answer: > 200 nM

Question: What about the “Selectivity (based on IC50)” value (ITK) of the same compound?
Answer: >200

Question: And the IC50 (BTK)?
Answer: 1 nM

Question: What does the source list for `N#CC(=CC1CC1)C(=O)N1C[C@@H]2C[C@@H]1[C@@H](n1nc(-c3ccc(C(=O)Nc4ccccn4)cc3F)c3c(N)ncnc31)C2` [Ex. 82, 4-(4-amino-1-((1R,4R,6S)-2-(2-cyano-3-cyclopropylacryloyl)-2-azabicyclo[2.2.1]heptan-6-yl)-1H-pyrazolo[3,4-d]pyrimidin-3-yl)-3-fluoro-N-(pyridin-2-yl)benzamide]?
Answer: IC50 (ITK): > 200 nM; Selectivity (based on IC50) (ITK): 55.6; IC50 (BTK): 3.6 nM

Question: How did the IC50 (ITK) turn out when `N#CC(=CC1CC1)C(=O)N1C[C@@H]2C[C@@H]1[C@@H](n1nc(-c3ccc(C(=O)Nc4cc(F)ccn4)cc3F)c3c(N)ncnc31)C2` [Ex. 83, 4-(4-amino-1-((1R,4R,6S)-2-(2-cyano-3-cyclopropylacryloyl)-2-azabicyclo[2.2.1]heptan-6-yl)-1H-pyrazolo[3,4-d]pyrimidin-3-yl)-3-fluoro-N-(4-fluoropyridin-2-yl)benzamide] was run?
Answer: 229 nM

Question: And the “Selectivity (based on IC50)” value (ITK)?
Answer: 81.7

Question: And the IC50 (BTK)?
Answer: 2.8 nM

Question: `C=CC(=O)N1C[C@@H]2C[C@@H]1[C@@H](n1nc(-c3ccc(C(=O)Nc4ccccn4)cc3F)c3c(N)ncnc31)C2` [Ex. 85, 4-(1-((1R,4R,6S)-2-acryloyl-2-azabicyclo[2.2.1]heptan-6-yl)-4-amino-1H-pyrazolo[3,4-d]pyrimidin-3-yl)-3-fluoro-N-(pyridin-2-yl)benzamide] was tested. Which IC50 (ITK) did it give?
Answer: 60.6 nM

Question: What about the “Selectivity (based on IC50)” value (ITK) of the same compound?
Answer: 37.9

Question: And the IC50 (BTK)?
Answer: 1.6 nM
